A word on the IC50: it is the concentration that inhibits the measured activity by half.

For one assay, the system named is MV-4-11 cells. The assay is described as follows: Cell Viability Assay in MV-4-11 Cells. To be noted: Homo sapiens, MV4-11, 72 h. The assay is classed as cell-based. A digest of the protocol:
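MV-4-11 cells at 7,000/well in IMDM with 10% FBS, exposed to compound for 72 h. Viability by CellTiter-Glo luminescence, normalized to DMSO as 100%, fitted with a four-parameter curve.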
With `C=CCc1ccnc(N(C(=O)c2ccc(Cl)c(CC=C)c2)[C@@H]2CCCNC2)c1` [Example 362, 3-allyl-N-(4-allyl-2-pyridyl)-4-chloro-N-[(3R)-3-piperidyl]benzamide], the IC50 worked out at 4300 nM.

Staying with this assay, now noted: Homo sapiens, MV4-11, 72 h, MV-4-11 cells, 72 h, Cell-Titer Glo; read-out: IC50.
On to `O=C(c1ccc(-n2nnc3cccnc32)cc1F)N(c1nccc2sc(-c3ccn(CCO)n3)cc12)[C@@H]1CCCNC1` [Example 418, (R)-4-(3H-[1,2,3]triazolo[4,5-b]pyridin-3-yl)-2-fluoro-N-(2-(1-(2-hydroxyethyl)-1H-pyrazol-3-yl)thieno[3,2-c]pyridin-4-yl)-N-(piperidin-3-yl)benzamide], for which the IC50 turned out to be 360 nM. Same read-out and setting: with `Cc1nnc(-c2ccc(C(=O)N(c3nccc4cc(Cl)cc(C)c34)[C@@H]3CCCNC3)cc2C)s1` [Example 707, (R)—N-(6-chloro-8-methylisoquinolin-1-yl)-3-methyl-4-(5-methyl-1,3,4-thiadiazol-2-yl)-N-(piperidin-3-yl)benzamide] the figure was 470 nM; with `O=C(c1ccc(-n2nnc3cccnc32)cc1F)N(c1nccc2sc(-c3ccc(C(F)(F)F)nc3)cc12)[C@@H]1CCCNC1` [Example 454, 2-fluoro-N-[(3R)-3-piperidyl]-4-(triazolo[4,5-b]pyridin-3-yl)-N-[2-[6-(trifluoromethyl)-3-pyridyl]thieno[3,2-c]pyridin-4-yl]benzamide], 1000 nM. On the same count and under the same terms, under `Cc1cccc2ccnc(N(C(=O)N3CCC[C@@H](c4ccc(-n5cc6cccc(C(N)=O)c6n5)cc4)C3)[C@@H]3CCCNC3)c12` [Example 339, 2-(4-((S)-1-((8-methylisoquinolin-1-yl)((R)-piperidin-3-yl)carbamoyl)piperidin-3-yl)phenyl)-2H-indazole-7-carboxamide] stands 550 nM; under `Cc1cccc2ccnc(N(C(=O)c3cccc(C#CCCC(=O)N4CCOCC4)c3)[C@@H]3CCCNC3)c12` [Example 519, (R)—N-(8-methylisoquinolin-1-yl)-3-(5-morpholino-5-oxopent-1-yn-1-yl)-N-(piperidin-3-yl)benzamide], 430 nM. As for `O=C(c1ccc(-n2nnc3cccnc32)cc1F)N(c1nccc2sc(-c3ccccc3O)cc12)[C@@H]1CCCNC1` [Example 428, 2-fluoro-N-[2-(2-hydroxyphenyl)thieno[3,2-c]pyridin-4-yl]-N-[(3R)-3-piperidyl]-4-(triazolo[4,5-b]pyridin-3-yl)benzamide], the IC50 is 250 nM. Still for that read-out and setting: with `Cc1cc(F)cc2ccnc(N(C(=O)c3ccc(-c4nnn(C)c4C)cc3)[C@@H]3CCCNC3)c12` [Example 770, (R)-4-(1,5-dimethyl-1H-1,2,3-triazol-4-yl)-N-(6-fluoro-8-methylisoquinolin-1-yl)-N-(piperidin-3-yl)benzamide] the figure was 430 nM; with `Cc1cccc2ccnc(N(C(=O)c3ccc(Nc4nccc(C(N)=O)n4)cc3F)[C@@H]3CCCNC3)c12` [Example 402, (R)-2-((3-fluoro-4-((8-methylisoquinolin-1-yl)(piperidin-3-yl)carbamoyl)phenyl)amino)pyrimidine-4-carboxamide], 290 nM. The same measure, in the same setting: with `Cc1cccc2ccnc(N(C(=O)N3CCCC4(CCN(C(=O)OCc5ccccc5)CC4)C3)[C@@H]3CCCNC3)c12` [Example 342, benzyl (R)-2-((8-methylisoquinolin-1-yl)(piperidin-3-yl)carbamoyl)-2,9-diazaspiro [5.5]undecane-9-carboxylate] the figure was 2000 nM. The same measure, in the same setting: under `O=C(c1ccc(-n2nnc3cccnc32)cc1F)N(c1nccc2sc(-c3ccncn3)cc12)[C@@H]1CCCNC1` [Example 456, 2-fluoro-N-[(3R)-3-piperidyl]-N-(2-pyrimidin-4-ylthieno[3,2-c]pyridin-4-yl)-4-(triazolo[4,5-b]pyridin-3-yl)benzamide] stands 380 nM. As to `Cc1cccc2ccnc(N(C(=O)c3ccc(N4CCOc5cccnc54)cc3F)[C@@H]3CCCNC3)c12` [Example 646, 4-(2,3-dihydropyrido[3,2-b][1,4]oxazin-4-yl)-2-fluoro-N-(8-methyl-1-isoquinolyl)-N-[(3R)-3-piperidyl]benzamide], the IC50 amounted to 2200 nM.

In the case of `[2H]C([2H])([2H])c1nnc(-c2ccc(C(=O)N(c3nccc4cc(C)cc(C)c34)[C@@H]3CCCNC3)cc2)s1` [Example 907, N-(6,8-dimethyl-1-isoquinolyl)-N-[(3R)-3-piperidyl]-4-[5-(trideuteriomethyl)-1,3,4-thiadiazol-2-yl]benzamide], the IC50 was determined as 130 nM. On the same count and under the same terms, under `[2H]C([2H])([2H])c1nnc(-c2ccc(C(=O)N(c3nccc4cc(F)cc(C)c34)[C@@H]3CCCNC3)c(F)c2)s1` [Example 767, 2-fluoro-N-(6-fluoro-8-methyl-1-isoquinolyl)-N-[(3R)-3-piperidyl]-4-[5-(trideuteriomethyl)-1,3,4-thiadiazol-2-yl]benzamide] stands 130 nM; under `Cc1ccc(F)c2ccnc(N(C(=O)c3ccc(-c4cn(C)nn4)cc3F)[C@@H]3CCCNC3)c12` [Example 761, (R)-2-fluoro-N-(5-fluoro-8-methylisoquinolin-1-yl)-4-(1-methyl-1H-1,2,3-triazol-4-yl)-N-(piperidin-3-yl)benzamide], 69 nM. The same measure, in the same setting: with `Cc1nn(C)c(-c2ccc(C(=O)N(c3nccc4cccc(C)c34)[C@@H]3CCCNC3)c(F)c2)c1N` [Example 392, 4-(4-amino-2,5-dimethyl-pyrazol-3-yl)-2-fluoro-N-(8-methyl-1-isoquinolyl)-N-[(3R)-3-piperidyl]benzamide] the figure was 840 nM. On the same count and under the same terms, under `Cn1cc(-c2ccc(C(=O)N(c3nccc4sc(-c5ccc(-c6cn[nH]c6)cc5)cc34)[C@@H]3CCCNC3)c(F)c2)nn1` [Example 597] stands 190 nM; under `Cc1cc(-c2cnn(C)c2)cc2ccnc(N(C(=O)c3ccc(-c4cn(C)nn4)cc3F)[C@@H]3CCCNC3)c12` [Example 845, 2-fluoro-N-[8-methyl-6-(1-methylpyrazol-4-yl)-1-isoquinolyl]-4-(1-methyltriazol-4-yl)-N-[(3R)-3-piperidyl]benzamide], 69 nM. For `CN(C)C(=O)c1ccc(-c2cc3c(N(C(=O)c4ccc(-c5cn(C)nn5)cc4F)[C@@H]4CCCNC4)nccc3s2)cc1` [Example 528, (R)—N-(2-(4-(dimethylcarbamoyl)phenyl)thieno[3,2-c]pyridin-4-yl)-2-fluoro-4-(1-methyl-1H-1,2,3-triazol-4-yl)-N-(piperidin-3-yl)benzamide], the IC50 worked out at 870 nM. Still for that read-out and setting: under `Cc1cccc2ccnc(N(C(=O)c3ccc(-c4cncs4)cc3F)[C@@H]3CCCNC3)c12` [Example 314, (R)-2-fluoro-N-(8-methylisoquinolin-1-yl)-N-(piperidin-3-yl)-4-(thiazol-5-yl) benzamide] stands 50 nM; under `COCCn1cc(-c2ccc(C(=O)N(c3nccc4cc(F)cc(C)c34)[C@@H]3CCCNC3)c(F)c2)nn1` [Example 850, 2-fluoro-N-(6-fluoro-8-methyl-1-isoquinolyl)-4-[1-(2-methoxyethyl)triazol-4-yl]-N-[(3R)-3-piperidyl]benzamide], 52 nM. The same measure, in the same setting: under `Cn1cc(-c2ccc(C(=O)N(c3nccc4sc(Br)cc34)[C@@H]3CCCNC3)c(F)c2)nn1` [Example 506, N-(2-bromothieno[3,2-c]pyridin-4-yl)-2-fluoro-4-(1-methyltriazol-4-yl)-N-[(3R)-3-piperidyl] benzamide] stands 710 nM. Same read-out and setting: under `COC(=O)c1cnc(Nc2ccc(C(=O)N(c3nccc4cccc(C)c34)[C@@H]3CCCNC3)c(F)c2)nc1` [Example 929, methyl (R)-2-((3-fluoro-4-((8-methylisoquinolin-1-yl)(piperidin-3-yl)carbamoyl)phenyl)amino)pyrimidine-5-carboxylate] stands 110 nM; under `COCc1c(-c2ccc(C(=O)N(c3nccc4cc(Cl)cc(C)c34)[C@@H]3CCCNC3)c(F)c2)nnn1C` [Example 637, (R)—N-(6-chloro-8-methylisoquinolin-1-yl)-2-fluoro-4-(5-(methoxymethyl)-1-methyl-1H-1,2,3-triazol-4-yl)-N-(piperidin-3-yl)benzamide], 250 nM; under `O=C(NCCO)c1ccc2c(N(C(=O)c3ccc(-n4nnc5cccnc54)cc3F)[C@@H]3CCCNC3)nccc2c1` [Example 371, (R)-1-(4-(3H-[1,2,3]triazolo[4,5-b]pyridin-3-yl)-2-fluoro-N-(piperidin-3-yl)benzamido)-N-(2-hydroxyethyl) isoquinoline-6-carboxamide], 1300 nM.

Consider `Cc1cccc2ccnc(N(C(=O)c3ccc(-c4cn(C)nc4N)cc3F)[C@@H]3CCCNC3)c12` [Example 391, 4-(3-amino-1-methyl-pyrazol-4-yl)-2-fluoro-N-(8-methyl-1-isoquinolyl)-N-[(3R)-3-piperidyl] benzamide], for which the IC50 was above 10000 nM. For the molecule `Cc1cccc2ccnc(N(C(=O)N3CCCC(CCC(=O)Nc4ccc5cn[nH]c5c4)C3)[C@@H]3CCCNC3)c12` (stereo partly drawn) [Example 499, 3-(3-((1H-indazol-6-yl)amino)-3-oxopropyl)-N-(8-methylisoquinolin-1-yl)-N—((R)-piperidin-3-yl)piperidine-1-carboxamide], the IC50 came out at 1700 nM. Same read-out and setting: with `Cc1ccc(F)c2ccnc(N(C(=O)c3ccc(-c4cnn5cccnc45)cc3F)[C@@H]3CCCNC3)c12` [Example 626, (R)-2-fluoro-N-(5-fluoro-8-methylisoquinolin-1-yl)-N-(piperidin-3-yl)-4-(pyrazolo[1,5-a]pyrimidin-3-yl)benzamide] the figure was 110 nM. Consider `Cc1cccc2ccnc(N(C(=O)c3ccc(Nc4nccc(N5CCOC[C@H]5C(C)C)n4)cc3F)[C@@H]3CCCNC3)c12` [Example 941, 2-fluoro-4-((4-((R)-3-isopropylmorpholino)pyrimidin-2-yl)amino)-N-(8-methylisoquinolin-1-yl)-N—((R)-piperidin-3-yl)benzamide], for which the IC50 is 39 nM. The same measure, in the same setting: under `Cn1cc(-c2ccc(C(=O)N(c3nccc4cc(-c5ccncc5)sc34)[C@@H]3CCCNC3)c(F)c2)nn1` [Example 505, 2-fluoro-4-(1-methyltriazol-4-yl)-N-[(3R)-3-piperidyl]-N-[2-(4-pyridyl)thieno[2,3-c]pyridin-7-yl]benzamide] stands 250 nM.

These data come from US20240400555A1 (Initial Therapeutics, Inc., priority 2023, published 2024).
